Values of other authors in patent US20220370535A1, “ANTIVIRAL ESSENTIAL OIL COMPOSITIONS” (priority 2020, published 2022).
pEC50: −log10 of the molar value.

How the values were obtained:
[1] = molecular target: SARS-CoV-2, Mpro (Severe acute respiratory syndrome coronavirus 2, UniProt P0DTD1); settings: nelfinavir, pitavastatin, perampanel, praziquantel compared
[2] = system: SARS-CoV-2; settings: inhibition of the virus in cell-based assay

Row | Structure (SMILES) | inhibitor ranking among 4 tested drugs [1] | pEC50 [2]
1 | Cc1c(O)cccc1C(=O)N[C@@H](CSc1ccccc1)[C@H](O)CN1C[C@H]2CCCC[C@H]2C[C@H]1C(=O)NC(C)(C)C [nelfinavir] | most potential inhibitor | –
2 | CCN(CC)CCCC(C)Nc1ccnc2cc(Cl)ccc12 (centres unmarked) [chloroquine] | – | 5.95
